Literature values in patent US6503496B2, “Non-alcoholic and hypoallergenic face cream for the treatment of razor bumps” (priority 2000, dated 2003).

Tests used:
[1] = not given; remark: listed apart in the source

Row | solubility in alkaline solution ([1]; alkaline solution) | solubility in water ([1]; water) | Compound | toxicity on the skin
1 |  |  | O=C([O-])CN(CCN(CC(=O)[O-])CC(=O)O)CC(=O)[O-].[Na+].[Na+].[Na+] [Trisodium EDTA] | No known toxicity
2 | soluble | Practically insoluble | Aluminium Polyhydrate | 
